Results: publication PMC7436013, “Design, Synthesis, and Biological Investigation of Novel Classes of 3-Carene-Derived Potent Inhibitors of TDP1” (Molecules, 2020)
Entries after “also recorded” stand apart in the source; their conditions may differ. Each block holds one compound with its values, some of them ahead of it.

Legend:
TDP1 [1] = biological target: T1, TDP1 (Homo sapiens, UniProt Q9NUW8); experiment: Real-time detection of TDP1 activity with fluorescent oligonucleotide biosensor; type: biochemical; conditions: for IC50: real-time fluorescent oligonucleotide biosensor, 1.5 nM TDP1, 50 nM substrate, read-out: IC50, TDP1 inhibition
T1 construct: made in house; host or cells: Escherichia coli
T1 sequence (Q9NUW8 whole entry): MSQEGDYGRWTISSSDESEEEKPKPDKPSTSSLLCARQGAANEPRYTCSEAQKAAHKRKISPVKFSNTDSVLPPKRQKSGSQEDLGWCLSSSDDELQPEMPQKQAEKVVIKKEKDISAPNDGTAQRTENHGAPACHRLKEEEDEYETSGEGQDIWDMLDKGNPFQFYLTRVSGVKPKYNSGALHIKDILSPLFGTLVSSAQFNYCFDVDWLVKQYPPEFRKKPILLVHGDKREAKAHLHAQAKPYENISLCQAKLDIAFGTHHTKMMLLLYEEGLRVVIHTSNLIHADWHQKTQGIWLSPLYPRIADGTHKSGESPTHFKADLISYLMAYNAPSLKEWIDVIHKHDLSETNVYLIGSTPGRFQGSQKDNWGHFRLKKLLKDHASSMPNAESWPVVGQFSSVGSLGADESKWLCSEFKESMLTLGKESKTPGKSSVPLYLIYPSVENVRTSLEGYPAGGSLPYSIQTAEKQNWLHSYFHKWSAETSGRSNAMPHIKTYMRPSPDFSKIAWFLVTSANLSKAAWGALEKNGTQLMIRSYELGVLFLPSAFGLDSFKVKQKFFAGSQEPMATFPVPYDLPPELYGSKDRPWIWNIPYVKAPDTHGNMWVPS
Method: The compounds synthesized starting from (+)-3-carene 8 were tested for their TDP1 inhibitory properties by measuring their IC50 values using a real-time fluorescent oligonucleotide biosensor [38].
A fluorophore quencher-coupled oligonucleotide biosensor was used for TDP1 enzyme activity real-time fluorescence detection. […] Recombinant protein TDP1 was expressed in Escherichia coli (pET 16B plasmid containing TDP1 cDNA was provided by Dr. K.W. Caldecott, University of Sussex, United Kingdom) and isolated as described by Lebedeva et al.. The reaction mixture contained TDP1 reaction buffer (50 mM Tris-HCl, 50 mM NaCl, 7 mM β-mercaptoethanol), 50 nM oligonucleotide substrate, varied concentrations of the tested compounds, and 1.5 nM purified TDP1 in a final volume of 200 μL.
The TDP1 reaction mixture was incubated at rt in a POLARstar OPTIMA fluorimeter (BMG LABTECH, GmbH). Fluorescence intensity was measured every 1 min (Ex485/Em520 nm). The efficiency of TDP1 inhibition was evaluated by comparing the rate of increase in the fluorescence of the biosensor in the presence of the compound to that of DMSO (1.5%) control wells. IC50 values were determined using an 11-point concentration–response curve. The data were imported into MARS Data Analysis 2.0 program (BMG LABTECH) and the slope during the linear phase was calculated. The IC50 measurements were carried out in at least three independent experiments.

HEK293FT WT cells [2] = experiment: Colorimetric cytotoxicity test (MTT/EZ4U), HEK293FT WT; type: cell-based, human; conditions: for IC50: Homo sapiens, HEK293FT, 72 h, read-out: Tpc IC50, colorimetric test
Method: (§1) We analyzed, using a colorimetric test, the relative amount of viable cells after treating HEK293FT WT and TDP1-deficient (TDP1−/−) cells with increasing concentrations of Tpc for 72 h. […] Next, we studied WT and mutant cells’ live activity after Tpc treatment on the xCELLigence System (ACEA Biosciences, USA) by the impedance-based assay. HEK293FT TDP1−/− cells were more sensitive to Tpc (Figure 2B). After Tpc administration to the cells, an […] of the slope was seen, characterizing the velocity of the cell growth with Tpc as compared to the control both for WT (red columns) and mutant cells (green columns) (Figure S1, Supplementary Materials). […] The sharper decrease of the slope for the mutant cells than for the WT (compare the histogram for the 0 and 0.05 μM Tpc concentration, ~1.5 times for WT cells (red) and ~6 times for TDP1−/−cells (green)) also characterizes the higher sensitivity of the mutant to the TOP1 inhibitor. […] There was a three-fold difference for these IC50 values, which is nearly the same as for the colorimetric assay.
(§2) The cytotoxicity of the compounds was examined against human cell lines HEK293FT (human embryonic kidney), WT and TDP1-deficient (TDP1-/-), HCT116 (human colon cancer), IMR-32 (human neuroblastoma cell line), HeLa (cervical cancer), and Krebs-2 carcinoma ascites using MTT and EZ4U colorimetric tests or an xCELLigence DP Real-Time Cell Analyzer (ACEA Biosciences, San Diego, CA, USA) for HEK293FT in cells exposed to the compounds. The cells were grown in DMEM/F12 or IMDM (for IMR-32 and Krebs-2) medium (Gibco), with 1x GlutaMAX (Gibco), 50 IU/mL penicillin, 50 μg/mL streptomycin (MP Biomedicals, Irvine, CA, USA) and in the presence of 10% fetal bovine serum (Biolot). The cells (~20,000 cells per well) were incubated for 24 h at 37 °C in 5% CO2, and then treated with the tested compounds (the volume of the added reagents was 1/100 of the total volume of the culture medium, the amount of DMSO was 1% of the final volume as indicated). Control cells were grown in the presence of 1% DMSO where indicated. After 72 h of cell incubation, the relative amount of living cells was determined using a colorimetric test of the amount of formazan converted from 3-(4,5-dimethylthiazol-2-yl)-2,5-diphenyl-2H-tetrazolium bromide (MTT test) or EZ4U Cell Proliferation and Cytotoxicity Assay (Biomedica, Austria), as per the manufacturer’s protocols. The real-time detection of the living cells was done by an xCELLigence DP Real-Time Cell Analyzer (ACEA Biosciences). The measurements were carried out in three parallel experiments.

HEK293FT TDP1−/− cells [3] = experiment: Colorimetric cytotoxicity test (MTT/EZ4U), HEK293FT TDP1-/-; type: cell-based, human; conditions: for IC50: Homo sapiens, HEK293FT, 72 h, read-out: Tpc IC50, colorimetric test
Method: as §1, §2

[4] = system: HeLa (cervical carcinoma); experiment: Colorimetric cytotoxicity test, HeLa; type: cell-based, human
Method: as §2

[5] = system: HCT116 (human colon cancer); experiment: Colorimetric cytotoxicity test, HCT116; type: cell-based
Method: as §2

[6] = system: IMR-32 (human neuroblastoma cell line); experiment: Colorimetric cytotoxicity test, IMR-32; type: cell-based
Method: as §2

Krebs-2 carcinoma cells = experiment: Colorimetric cytotoxicity test, Krebs-2; type: cell-based
Method: as §2, with “The real-time detection of the living cells was done by an xCELLigence DP Real-Time Cell Analyzer (ACEA Biosciences). The measurements were carried out in three parallel experiments.” left out

HEK293FT WT cells [7] = experiment: Impedance-based real-time assay (xCELLigence), HEK293FT WT; type: cell-based, human
Method: as §1, with “colorimetric assay. […]” for “colorimetric assay.”

HEK293FT TDP1−/− cells [8] = experiment: Impedance-based real-time assay (xCELLigence), HEK293FT TDP1-/-; type: cell-based, human
Method: as §1, with “colorimetric assay. […]” for “colorimetric assay.”

TDP1 [9] = system: TDP1; set-up: method as in PMID 31619021, PMID 30396105, PMID 30142660, PMID 29562592, PMID 27658793; conditions: Figure 1; ref [10]-[13],[16]-[18],[20],[22]; read-out: IC50 of known TDP1 inhibitors; cited from earlier work
[10] = system: human breast adenocarcinoma cell line MCF-7; set-up: method as in PMID 27658793; conditions: ref [16]; cited from earlier work
[11] = system: lung adenocarcinoma cells A549; set-up: method as in PMID 30523770, doi:10.3390/app9132767; conditions: ref [18],[20]; cited from earlier work
[12] = Homo sapiens, in H2O, read-out: Tpc IC50, impedance-based assay

IC50 (TDP1 [1]): 650 ± 220 nM
SMILES: CC1=CC[C@@H]2C[C@H]1[C@H](c1cc(Br)cs1)OC2(C)C [12g, (1R,4R,5R)-2,2,6-trimethyl-4-(4-bromothiophen-2-yl)-3-oxabicyclo[3.3.1]non-6-ene]

IC50 (TDP1 [1]): 1750 ± 780 nM
SMILES: CC1=CC[C@@H]2C[C@H]1[C@H](c1ccc(Br)s1)OC2(C)C [12h, (1R,4R,5R)-2,2,6-trimethyl-4-(5-bromothiophen-2-yl)-3-oxabicyclo[3.3.1]non-6-ene]

activity against TDP1 (in words) (TDP1 [1]): did not exhibit high activity | IC50 (TDP1 [1]): 28000 ± 10000 nM
SMILES: CC1=CC[C@@H]2C[C@H]1[C@H](c1ccc([N+](=O)[O-])o1)OC2(C)C [12j, (1R,4R,5R)-2,2,6-trimethyl-4-(5-nitrofuran-2-yl)-3-oxabicyclo[3.3.1]non-6-ene]

IC50 (TDP1 [1]): 1200 ± 140 nM
SMILES: CC1=CC[C@@H]2C[C@H]1[C@H](c1ccsc1)OC2(C)C [12k, (1R,4R,5R)-2,2,6-trimethyl-4-(thiophen-3-yl)-3-oxabicyclo[3.3.1]non-6-ene]
effect of TDP1 inhibitor in conjunction with Tpc on cell growth (HEK293FT WT cells [2]; Tpc 200 nM): cell growth suppression; also recorded: synergistic effect; also recorded: Suppressed cell growth | effect of TDP1 inhibitor in conjunction with Tpc on cell growth (HEK293FT TDP1−/− cells [3]; Tpc 30 nM): not found; also recorded: no effect | intrinsic cytotoxicity [4]: low | enhancement of the Tpc cytotoxicity ([4]; data not shown): no enhancement | intrinsic cytotoxicity ([5]; HCT116): low | dose-dependent action of inhibitor in the presence of Tpc on cell growth ([5]; HCT, Tpc 900 nM, Figure 4B): no effect | intrinsic cytotoxicity ([6]; IMR-32): low | dose-dependent action of Tpc in the presence of inhibitor ([6]; IMR-32, Figure 4C): synergistic action | dose-dependent action of inhibitor in the presence of Tpc on cell growth ([6]; IMR-32, Tpc 8 nM, Figure 4B): suppressed cell growth | intrinsic cytotoxicity (Krebs-2 carcinoma cells): low

SMILES: CC[C@@]1(O)C(=O)OCc2c1cc1n(c2=O)Cc2cc3c(CN(C)C)c(O)ccc3nc2-1 [Tpc, topotecan, reference compound]
IC50 (HEK293FT WT cells [2]; in DMSO): 200 nM | IC50 (HEK293FT WT cells [2]; in H2O): 250 nM | IC50 (HEK293FT TDP1−/− cells [3]; in DMSO): 30 nM | IC50 (HEK293FT TDP1−/− cells [3]; in H2O): 150 nM | IC50 (HEK293FT WT cells [7]; [12]): 60 nM | decrease of the slope (velocity of cell growth), 0 vs 0.05 μM Tpc (HEK293FT WT cells [7]; ~70 h after Tpc treatment): ~ 1.5 times | IC50 (HEK293FT TDP1−/− cells [8]; [12]): 20 nM | decrease of the slope (velocity of cell growth), 0 vs 0.05 μM Tpc (HEK293FT TDP1−/− cells [8]; ~70 h after Tpc treatment): ~ 6 times | IC50 ([5]; Homo sapiens, HCT-116, read-out: Tpc IC50 (concentration close to IC50)): ~900 nM | IC50 ([6]; Homo sapiens, IMR-32, read-out: Tpc IC50 (concentration close to IC50)): ~8 nM

SMILES: CC(=O)C[C@H]1CC2C(CCC3C[C@H](OC(C)=O)CC[C@@]32C)C2CC[C@H]([C@H](C)CCC(=O)NC34CC5CC(CC(C5)C3)C4)[C@]21C (stereo partly drawn) [compound 2]
IC50 (TDP1 [9]): 470 nM

SMILES: C[C@@H]1CC[C@@H]2[C@@H](C1)O[C@@H](c1ccc(NC(=O)C34CC5CC(CC(C5)C3)C4)s1)C[C@]2(C)O [compound 3]
IC50 (TDP1 [9]): 1200 nM

SMILES: CC1(C)C2CC=C(COc3ccc4c5c(c(=O)oc4c3)CCC5)C1C2 (stereo not drawn) [compound 4]
IC50 (TDP1 [9]): 680 nM | reduction of the CC50 of camptothecin [10]: eight-fold

SMILES: CC(C)CCCC(C)CCOC(=O)C12CC3CC(CC(C3)C1)C2 (stereo not drawn) [compound 6]
IC50 (TDP1 [9]): 920 nM | synergism in combination with Tpc [11]: strong synergism

SMILES: CC(C)CCCC(C)CCNC(=S)C12CC3CC(CC(C3)C1)C2 (stereo not drawn) [compound 7]
IC50 (TDP1 [9]): 3300 nM | synergism in combination with Tpc [11]: strong synergism
